The target in this assay is T1, pY705-STAT3 in PBMC (Homo sapiens, UniProt P40763).
T1 construct: Cryopreserved Peripheral Blood Mononuclear Cells (PBMC) are from AllCells; host or cells: cryopreserved PBMC
T1 sequence (P40763 whole entry): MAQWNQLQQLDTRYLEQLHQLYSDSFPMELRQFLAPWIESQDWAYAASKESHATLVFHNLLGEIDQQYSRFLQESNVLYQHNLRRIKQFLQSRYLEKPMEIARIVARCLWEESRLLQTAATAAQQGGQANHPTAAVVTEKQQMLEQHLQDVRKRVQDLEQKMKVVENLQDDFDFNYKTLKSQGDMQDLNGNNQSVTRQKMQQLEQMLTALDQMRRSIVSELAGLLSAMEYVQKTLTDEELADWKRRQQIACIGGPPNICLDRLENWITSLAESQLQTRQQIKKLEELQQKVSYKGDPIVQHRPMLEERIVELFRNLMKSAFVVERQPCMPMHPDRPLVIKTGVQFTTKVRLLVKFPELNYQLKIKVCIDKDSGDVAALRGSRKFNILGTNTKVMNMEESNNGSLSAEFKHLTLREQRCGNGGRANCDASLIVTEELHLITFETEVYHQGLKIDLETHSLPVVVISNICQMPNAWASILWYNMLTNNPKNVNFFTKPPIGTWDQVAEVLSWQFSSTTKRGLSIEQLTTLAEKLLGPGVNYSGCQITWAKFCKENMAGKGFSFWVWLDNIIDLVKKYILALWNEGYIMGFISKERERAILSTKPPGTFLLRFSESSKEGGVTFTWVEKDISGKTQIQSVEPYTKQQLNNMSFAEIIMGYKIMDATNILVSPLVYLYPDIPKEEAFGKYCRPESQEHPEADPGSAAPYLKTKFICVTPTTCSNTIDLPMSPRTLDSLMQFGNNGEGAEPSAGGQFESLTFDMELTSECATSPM
Description: MSD-pSTAT-PBMC Assay (pSTAT3, IL-6 stimulated). It is filed as cell-based. The following applies: PBMC, compound 3 hrs, then 10 ng/mL IL-6 for 10 min; Table 115; read-out: STAT3. In short, it runs like this: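 Thawed human PBMC rested overnight in IMDM/10% FBS, then got compound for 3 hrs before a 10 min cytokine pulse: 1 ng/mL IL-4 for pSTAT6, 10 ng/mL IL-6 for pSTAT3. Lysates went to MSD sandwich capture on total STAT6 or STAT3 with phospho-specific detection. IC50 came from background-subtracted, DMSO-normalized signal.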
Turning to `COc1ccncc1C1CN(C(=O)[C@@H]2CC[C@@H]3CCC[C@H](NC(=O)c4cc5cc([C@@H](F)[P@@](=O)(N[C@@H](C)C(=O)OC(C)C)Oc6ccccc6)ccc5s4)C(=O)N32)C1` (single isomer, unassigned) [Compound 956], the IC50 is less than 100 nM.

`CCCOC(=O)[C@H](C)NP(=O)(Oc1ccccc1)C(F)c1ccc2sc(C(=O)N[C@H]3CCC[C@H]4CC[C@@H](C(=O)N5CC(c6cn(C)ccc6=O)C5)N4C3=O)cc2c1` (stereo partly drawn) [Compound 985, propyl ((fluoro(2-(((3S,6S,9aS)-3-(3-(1-methyl-4-oxo-1,4-dihydropyridin-3-yl)azetidine-1-carbonyl)-5-oxooctahydro-1H-pyrrolo[1,2-a]azepin-6-yl)carbamoyl)benzo [b]thiophen-5-yl)methyl)(phenoxy)phosphoryl)-L-alaninate]: the IC50 is more than 3000 nM.

`CCCOC(=O)[C@H](C)NP(=O)(Oc1ccccc1)[C@@H](F)c1ccc2sc(C(=O)N[C@H]3CCC[C@H]4CC[C@@H](C(=O)N5CC(c6cnccc6N6CCOCC6)C5)N4C3=O)cc2c1` (stereo partly drawn) [Compound 1064, propyl (((R)-fluoro(2-(((3S,6S,9aS)-3-(3-(4-morpholinopyridin-3-yl)azetidine-1-carbonyl)-5-oxooctahydro-1H-pyrrolo[1,2-a]azepin-6-yl)carbamoyl)benzo [b]thiophen-5-yl)methyl)(phenoxy)phosphoryl)-L-alaninate]: the IC50 is less than 100 nM.

Consider `CCCOC(=O)[C@H](C)NP(=O)(Cc1ccc2sc(C(=O)N[C@H]3CCC[C@H]4CC[C@@H](C(=O)N5CC(c6c(F)ccnc6OC)C5)N4C3=O)cc2c1)Oc1ccccc1` (stereo partly drawn) [Compound 275, propyl (((2-(((3S,6S,9aS)-3-(3-(4-fluoro-2-methoxypyridin-3-yl)azetidine-1-carbonyl)-5-oxooctahydro-1H-pyrrolo[1,2-a]azepin-6-yl)carbamoyl)benzo [b]thiophen-5-yl)methyl)(phenoxy)phosphoryl)-L-alaninate], for which the IC50 is more than 3000 nM.

With `CCCOC(=O)[C@H](C)N[P@@](=O)(Oc1ccccc1)[C@@H](F)c1ccc2sc(C(=O)N[C@H]3C[C@H](C)C[C@H]4CC[C@@H](C(=O)N5CC(c6cnccc6OC)C5)N4C3=O)cc2c1` (single isomer, unassigned) [Compound 1040], the IC50 is less than 100 nM.

Consider `CCCOC(=O)[C@H](C)NP(=O)(Cc1ccc2sc(C(=O)N[C@H]3CCC[C@H]4CC[C@@H](C(=O)N5CC(c6cnccc6CC)C5)N4C3=O)cc2c1)Oc1ccccc1` (stereo partly drawn) [Compound 257, propyl (((2-(((3S,6S,9aS)-3-(3-(4-ethylpyridin-3-yl)azetidine-1-carbonyl)-5-oxooctahydro-1H-pyrrolo[1,2-a]azepin-6-yl)carbamoyl)benzo [b]thiophen-5-yl)methyl)(phenoxy)phosphoryl)-L-alaninate], for which the IC50 is less than 100 nM.

Turning to `O=C(N[C@H]1CCC[C@H]2CC[C@@H](C(=O)N3CC(c4cccnc4)C3)N2C1=O)c1cc2cc(CP(=O)(N[C@H]3CCOC3=O)Oc3ccccc3)ccc2s1` (stereo partly drawn) [Compound 398, phenyl P-((2-(((3S,6S,9aS)-5-oxo-3-(3-(pyridin-3-yl)azetidine-1-carbonyl)octahydro-1H-pyrrolo[1,2-a]azepin-6-yl)carbamoyl)benzo [b]thiophen-5-yl)methyl)-N-((S)-2-oxotetrahydrofuran-3-yl)phosphonamidate], the IC50 was more than 3000 nM.

For the compound `CC(C)OC(=O)C(C)(C)NP(=O)(Cc1ccc2sc(C(=O)N[C@H]3CCC[C@H]4CC[C@@H](C(=O)N5CC(c6cccnc6)C5)N4C3=O)cc2c1)Oc1ccccc1` (stereo partly drawn) [Compound 395, isopropyl 2-methyl-2-((((2-(((3S,6S,9aS)-5-oxo-3-(3-(pyridin-3-yl)azetidine-1-carbonyl)octahydro-1H-pyrrolo[1,2-a]azepin-6-yl)carbamoyl)benzo [b]thiophen-5-yl)methyl)(phenoxy)phosphoryl)amino) propanoate], the IC50 fell in the range of 100 to 1000 nM.

Regarding `CCCOC(=O)[C@H](C)NP(=O)(Oc1ccccc1)C(F)c1ccc2sc(C(=O)N[C@H]3CCCC[C@H]4CC[C@@H](C(=O)N5CC(OCCOC)(c6cccnc6)C5)N4C3=O)cc2c1` (stereo partly drawn) [Compound 995, propyl ((fluoro(2-(((3S,6S,10aS)-3-(3-(2-methoxyethoxy)-3-(pyridin-3-yl)azetidine-1-carbonyl)-5-oxodecahydropyrrolo [1,2-a]azocin-6-yl)carbamoyl)benzo [b]thiophen-5-yl)methyl)(phenoxy)phosphoryl)-L-alaninate], the IC50 was less than 100 nM.

For the compound `CC(C)OC(=O)[C@H](C)NP(=O)(Oc1ccccc1)C(F)c1ccc2sc(C(=O)N[C@H]3CCC[C@H]4CC[C@@H](C(=O)N5CC(c6cnccc6F)C5)N4C3=O)cc2c1` (stereo partly drawn) [Compound 972, isopropyl ((fluoro(2-(((3S,6S,9aS)-3-(3-(4-fluoropyridin-3-yl)azetidine-1-carbonyl)-5-oxooctahydro-1H-pyrrolo[1,2-a]azepin-6-yl)carbamoyl)benzo [b]thiophen-5-yl)methyl) (phenoxy)phosphoryl)-L-alaninate], the IC50 is less than 100 nM.

`CCCOC(=O)[C@H](C)NP(=O)(Oc1ccccc1)C(F)c1ccc2sc(C(=O)N[C@H]3CCCC[C@H]4CC[C@@H](C(=O)N5CC(NCC(F)F)(c6ccccn6)C5)N4C3=O)cc2c1` (stereo partly drawn) [Compound 1020, propyl (((2-(((3S,6S,10aS)-3-(3-((2,2-difluoroethyl)amino)-3-(pyridin-2-yl)azetidine-1-carbonyl)-5-oxodecahydropyrrolo [1,2-a]azocin-6-yl)carbamoyl)benzo [b]thiophen-5-yl)fluoromethyl) (phenoxy)phosphoryl)-L-alaninate]: the IC50 is less than 100 nM.

In the case of `CCCOC(=O)[C@H](C)NP(=O)(Oc1ccccc1)C(F)c1ccc2sc(C(=O)N[C@H]3CCC[C@H]4CC[C@@H](C(=O)N5CC(c6cccc(C#N)n6)C5)N4C3=O)cc2c1` (stereo partly drawn) [Compound 266, propyl (((2-(((3S,6S,9aS)-3-(3-(6-cyanopyridin-2-yl)azetidine-1-carbonyl)-5-oxooctahydro-1H-pyrrolo[1,2-a]azepin-6-yl)carbamoyl)benzo [b]thiophen-5-yl)fluoromethyl) (phenoxy)phosphoryl)-L-alaninate], the IC50 is less than 100 nM.

Turning to `CCCOC(=O)[C@H](C)NP(=O)(Cc1ccc2sc(C(=O)N[C@H]3CCC[C@H]4CC[C@@H](C(=O)N5CC(c6cncnc6C)C5)N4C3=O)cc2c1)Oc1ccccc1` (stereo partly drawn) [Compound 260, propyl (((2-(((3S,6S,9aS)-3-(3-(4-methylpyrimidin-5-yl)azetidine-1-carbonyl)-5-oxooctahydro-1H-pyrrolo[1,2-a]azepin-6-yl)carbamoyl)benzo [b]thiophen-5-yl)methyl)(phenoxy)phosphoryl)-L-alaninate], the IC50 fell in the range of 1000 to 3000 nM.

`CCCOC(=O)[C@H](C)NP(=O)(Cc1ccc2sc(C(=O)N[C@H]3CCC[C@H]4CC[C@@H](C(=O)N5CC(c6c(F)ccnc6C)C5)N4C3=O)cc2c1)Oc1ccccc1` (stereo partly drawn) [Compound 978, propyl (((2-(((3S,6S,9aS)-3-(3-(4-fluoro-2-methylpyridin-3-yl)azetidine-1-carbonyl)-5-oxooctahydro-1H-pyrrolo[1,2-a]azepin-6-yl)carbamoyl)benzo [b]thiophen-5-yl)methyl)(phenoxy)phosphoryl)-L-alaninate]: the IC50 lay within 100 to 1000 nM.

For the compound `CCCOC(=O)[C@H](C)NP(=O)(Oc1ccccc1)C(F)c1ccc2sc(C(=O)N[C@H]3CCCC[C@H]4CC[C@@H](C(=O)N5CC(NCCOC)(c6ccccn6)C5)N4C3=O)cc2c1` (stereo partly drawn) [Compound 987, propyl ((fluoro(2-(((3S,6S,10aS)-3-(3-((2-methoxyethyl)amino)-3-(pyridin-2-yl)azetidine-1-carbonyl)-5-oxodecahydropyrrolo [1,2-a]azocin-6-yl)carbamoyl)benzo [b]thiophen-5-yl)methyl)(phenoxy)phosphoryl)-L-alaninate], the IC50 is 100 to 1000 nM.

Take `CCCOC(=O)[C@H](C)NP(=O)(Cc1ccc2sc(C(=O)N[C@H]3CCC[C@H]4CC[C@@H](C(=O)N5CC(c6cccnc6)C5)N4C3=O)cc2c1)N1CCCC1=O` (stereo partly drawn) [Compound 433, propyl (((2-(((3S,6S,9aS)-5-oxo-3-(3-(pyridin-3-yl)azetidine-1-carbonyl)octahydro-1H-pyrrolo[1,2-a]azepin-6-yl)carbamoyl)benzo [b]thiophen-5-yl)methyl)(2-oxopyrrolidin-1-yl)phosphoryl)-L-alaninate]: the IC50 fell in the range of 1000 to 3000 nM.

In the case of `CCCOC(=O)[C@H](C)NP(=O)(Cc1ccc2sc(C(=O)N[C@H]3CCC[C@H]4CC[C@@H](C(=O)N5CC(c6cccnc6)C5)N4C3=O)cc2c1)OCCOC` (stereo partly drawn) [Compound 438, propyl ((2-methoxyethoxy)((2-(((3S,6S,9aS)-5-oxo-3-(3-(pyridin-3-yl)azetidine-1-carbonyl)octahydro-1H-pyrrolo[1,2-a]azepin-6-yl)carbamoyl)benzo [b]thiophen-5-yl)methyl)phosphoryl)-L-alaninate], the IC50 lay within 1000 to 3000 nM.

As for `CC(C)CC(=O)SCCOP(=O)(OCOC(=O)OC(C)C)[C@H](F)c1ccc2sc(C(=O)N[C@H]3CCC[C@H]4CC[C@@H](C(=O)N5CC(c6cccnc6)C5)N4C3=O)cc2c1` (stereo partly drawn) [Compound 1096, S-(2-((((S)-fluoro(2-(((3S,6S,9aS)-5-oxo-3-(3-(pyridin-3-yl)azetidine-1-carbonyl)octahydro-1H-pyrrolo[1,2-a]azepin-6-yl)carbamoyl)benzo [b]thiophen-5-yl)methyl) (((isopropoxy-carbonyl)oxy)methoxy)phosphoryl)oxy)ethyl) 3-methylbutanethioate], the IC50 is less than 100 nM.

For the origin of these results see patent US20250215029A1 (Recludix Pharma, Inc., priority 2022, published 2025).
